Among the test systems are HCT-15; 786-0; SK-MEL-28; U-251; SW-620; RPMI-8226; HT-29; KM12; HOP-62; A498; MOLT-4; A549; SK-MEL-2; IGROV-1; LOX IMVI; UACC-257; MDA-MB-435; NCI-H522; HCT-116.
What all share (assay): NCI-60 cell line screen, 48 h

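All cell lines were grown in 96-well plates and treated with compound for 48 hours. GI50 marks 50% less growth.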 Activity calls are given as the source filed them. Rule as the data show it: active = GI50 up to about 1.1 µM and inactive = higher.

As for `O=C(CN1CCOCC1)Nc1nc(-c2ccc(Cl)cc2)cs1`, the GI50 is 29.4 µM in the experiment on HCT-15; 60.3 µM (inactive) in the experiment on 786-0; 25.6 µM (inactive) with SK-MEL-28; 24.2 µM (inactive) in the experiment with U-251; 41.8 µM (inactive) in the experiment on SW-620; 13.6 µM (inactive) in the experiment with RPMI-8226. The GI50 with HT-29 is 36.1 µM (inactive); with KM12, 19.5 µM (inactive); in the experiment on HOP-62 it was 22.6 µM (inactive); in the experiment on A498 it was 23.1 µM (inactive); with MOLT-4, 13.8 µM (inactive); with A549, 24.4 µM (inactive). Moreover, the GI50 in the experiment with SK-MEL-2 was 26.5 µM (inactive); in the experiment on IGROV-1 it was 45.2 µM (inactive); in the experiment with LOX IMVI, 22.2 µM (inactive).
Take `Cc1ccc(C)c2c1CC(Cc1ccccc1C(=O)O)C2=O` (stereo not drawn): the GI50 was more than 100 µM in the experiment on HCT-15; > 100 µM (inactive) with 786-0; > 100 µM (inactive) in the experiment with SK-MEL-28; > 100 µM (inactive) in the experiment on U-251; > 100 µM (inactive) in the experiment with SW-620; > 100 µM (inactive) in the experiment with HT-29. The GI50 with KM12, in the experiment with HOP-62, with MOLT-4, in the experiment with A549, with SK-MEL-2 and with UACC-257 was > 100 µM (inactive) in each case. The GI50 in the experiment with IGROV-1, with MDA-MB-435, in the experiment on NCI-H522, in the experiment on LOX IMVI and in the experiment on HCT-116 was > 100 µM (inactive) in each case.
In the case of `O=C(O)c1cc2ccccc2c(/N=N\c2cc(C(F)(F)F)ccc2Cl)c1O`, the GI50 with HCT-15 was 83.8 µM; in the experiment on 786-0 it was 56.1 µM (inactive); with SK-MEL-28 it was 83 µM (inactive); in the experiment with U-251 it was 27.5 µM (inactive); in the experiment with SW-620, > 100 µM (inactive); in the experiment with RPMI-8226, 17.8 µM (inactive). The GI50 in the experiment on HT-29 is 77.6 µM (inactive); with KM12 it was 23.8 µM (inactive); in the experiment on HOP-62 it was 38.1 µM (inactive); with MOLT-4, 27.4 µM (inactive); in the experiment with A549 it was 27.9 µM (inactive); in the experiment with SK-MEL-2 it was 25.4 µM (inactive). Further, the GI50 in the experiment with UACC-257 was 67.6 µM (inactive); in the experiment with IGROV-1, 95.9 µM (inactive); in the experiment with MDA-MB-435, > 100 µM (inactive); with NCI-H522, > 100 µM (inactive); in the experiment on HCT-116, 53.8 µM (inactive).
For `[O-][S+](Nc1ccccc1)c1cccc(Cl)c1` (stereo not drawn), the GI50 with HCT-15 was 29.6 µM; in the experiment with 786-0, > 100 µM (inactive); in the experiment with SK-MEL-28, 68.5 µM (inactive); in the experiment on U-251 it was 53.2 µM (inactive); in the experiment on SW-620 it was > 100 µM (inactive); with RPMI-8226 it was 43.5 µM (inactive). Moreover, the GI50 in the experiment on HT-29 is > 100 µM (inactive); in the experiment with KM12, 34.2 µM (inactive); in the experiment with HOP-62 it was > 100 µM (inactive); with MOLT-4 it was 34.7 µM (inactive); with A549 it was 39.7 µM (inactive); in the experiment on UACC-257, > 100 µM (inactive). Further, the GI50 in the experiment on IGROV-1 was 46.3 µM (inactive); with MDA-MB-435 it was 72.1 µM (inactive); in the experiment with NCI-H522, 57.3 µM (inactive); with LOX IMVI, 60.5 µM (inactive); with HCT-116 it was 45.2 µM (inactive).
Consider `NCCN(CCN(C(=O)Nc1ccccc1)c1ccccc1)C(=O)Nc1ccccc1`, for which the GI50 in the experiment on HCT-15 was 24.5 µM; with 786-0, 24.9 µM (inactive); with SK-MEL-28, 19 µM (inactive); with U-251, 28.9 µM (inactive); in the experiment with SW-620, 22.5 µM (inactive); in the experiment with RPMI-8226, 27.5 µM (inactive). In addition, the GI50 with HT-29 was 28.5 µM (inactive); in the experiment with HOP-62, 16.7 µM (inactive); in the experiment with A498 it was 18.3 µM (inactive); in the experiment on MOLT-4, 35.5 µM (inactive); with A549, 30.6 µM (inactive); in the experiment on SK-MEL-2, 19.2 µM (inactive). Moreover, the GI50 was 19 µM (inactive) in the experiment on UACC-257; 17.6 µM (inactive) in the experiment on IGROV-1; 19 µM (inactive) in the experiment with NCI-H522; 19.4 µM (inactive) in the experiment on LOX IMVI; 16.3 µM (inactive) with HCT-116.
In the case of `O=[N+]([O-])c1ccc2c(/N=N/c3c(O)ccc4ccccc34)c(O)cc(S(=O)(=O)O)c2c1`, the GI50 in the experiment on HCT-15 is 4.62 µM; in the experiment with 786-0, 11.7 µM (inactive); in the experiment on SK-MEL-28, 10.1 µM (inactive); with U-251, 3.45 µM (inactive); in the experiment with SW-620 it was 13.8 µM (inactive); with RPMI-8226, 8.26 µM (inactive). In addition, the GI50 with HT-29 is 25.4 µM (inactive); in the experiment with KM12, 24.2 µM (inactive); in the experiment with HOP-62, 6.73 µM (inactive); with MOLT-4, 1.39 µM (inactive); in the experiment on A549 it was 15.4 µM (inactive); in the experiment with SK-MEL-2, 14.2 µM (inactive). Also, the GI50 in the experiment on UACC-257 was 20 µM (inactive); with IGROV-1, 4.89 µM (inactive); in the experiment on MDA-MB-435, 7.98 µM (inactive); in the experiment on NCI-H522, 4.76 µM (inactive); with LOX IMVI, 17.4 µM (inactive); in the experiment with HCT-116, 14.4 µM (inactive).
For `O=C1NC(N2CCCC(CO)C2)=N/C1=C\c1ccc(Cl)cc1` (stereo not drawn), the GI50 in the experiment on HCT-15 was 77.6 µM; in the experiment on 786-0, > 100 µM (inactive); in the experiment with SK-MEL-28 it was > 100 µM (inactive); in the experiment on U-251 it was > 100 µM (inactive); in the experiment with SW-620, > 100 µM (inactive); in the experiment with RPMI-8226, > 100 µM (inactive). Besides, the GI50 is > 100 µM (inactive) with HT-29; 63.7 µM (inactive) in the experiment on KM12; > 100 µM (inactive) with HOP-62; > 100 µM (inactive) in the experiment with MOLT-4; > 100 µM (inactive) in the experiment with A549; > 100 µM (inactive) in the experiment with SK-MEL-2. The GI50 with UACC-257 was > 100 µM (inactive); in the experiment on IGROV-1, 37.1 µM (inactive); with MDA-MB-435, > 100 µM (inactive); in the experiment on NCI-H522, > 100 µM (inactive); in the experiment on LOX IMVI, 87.5 µM (inactive); in the experiment on HCT-116 it was > 100 µM (inactive).
For the compound `O=C1C[C@H](c2ccccc2)O[C@@H](c2ccccc2)C1`, the GI50 is more than 100 µM with HCT-15; 88.1 µM (inactive) in the experiment with 786-0; > 100 µM (inactive) in the experiment on SK-MEL-28; > 100 µM (inactive) in the experiment on U-251; > 100 µM (inactive) with SW-620; > 100 µM (inactive) in the experiment on RPMI-8226. Moreover, the GI50 with HT-29 is > 100 µM (inactive); with KM12, > 100 µM (inactive); in the experiment on HOP-62, > 100 µM (inactive); with MOLT-4, 58.1 µM (inactive); in the experiment on A549, > 100 µM (inactive); in the experiment on SK-MEL-2 it was > 100 µM (inactive). Moreover, the GI50 in the experiment with UACC-257, in the experiment on IGROV-1, in the experiment with MDA-MB-435, in the experiment on LOX IMVI and in the experiment on HCT-116 was > 100 µM (inactive) throughout.
In the case of `CN1CCN(C(=S)N(C(=O)c2ccc(Cl)cc2)c2ccccc2)CC1`, the GI50 is more than 100 µM in the experiment on HCT-15; > 100 µM (inactive) in the experiment on 786-0; > 100 µM (inactive) with SK-MEL-28; > 100 µM (inactive) in the experiment on U-251; > 100 µM (inactive) in the experiment on SW-620; > 100 µM (inactive) with RPMI-8226. The GI50 with HT-29, in the experiment with KM12, in the experiment with MOLT-4, in the experiment on A549, in the experiment on SK-MEL-2 and with UACC-257 was > 100 µM (inactive) each time. Besides, the GI50 in the experiment on IGROV-1, with MDA-MB-435, with NCI-H522 and with LOX IMVI was > 100 µM (inactive) in each case.
For `CCCCC(N)CSSCC(N)CCCC` (stereo not drawn), the GI50 with HCT-15 was 26.2 µM; in the experiment on 786-0, 17.9 µM (inactive); with SK-MEL-28 it was 17.7 µM (inactive); in the experiment on SW-620, 23.2 µM (inactive); with RPMI-8226, 25.1 µM (inactive); with HT-29 it was 23.7 µM (inactive). Further, the GI50 in the experiment with KM12 was 49.2 µM (inactive); in the experiment on HOP-62 it was 27.3 µM (inactive); with A498 it was 25.8 µM (inactive); in the experiment on MOLT-4, 19.2 µM (inactive); in the experiment on A549 it was 52 µM (inactive); in the experiment with SK-MEL-2, 17.2 µM (inactive). The GI50 is 20.5 µM (inactive) with UACC-257; 50.8 µM (inactive) in the experiment with IGROV-1; 15 µM (inactive) in the experiment with NCI-H522; 17.6 µM (inactive) in the experiment with LOX IMVI; 17.8 µM (inactive) in the experiment with HCT-116.
Turning to `Cc1c(N2C(=O)C(Cl)C2c2ccc(Cl)cc2)c(=O)n(-c2ccccc2)n1C` (stereo not drawn), the GI50 with 786-0 was 33.1 µM (inactive); with U-251 it was 35.3 µM (inactive); with SW-620, 60.8 µM (inactive); in the experiment on RPMI-8226, 16 µM (inactive); with HT-29, > 100 µM (inactive); in the experiment on KM12 it was 27.7 µM (inactive). Besides, the GI50 was 42 µM (inactive) in the experiment with HOP-62; 31.4 µM (inactive) in the experiment on MOLT-4; > 100 µM (inactive) in the experiment with A549; > 100 µM (inactive) with SK-MEL-2; 14.2 µM (inactive) in the experiment with UACC-257; 27.1 µM (inactive) in the experiment with IGROV-1. For the same compound, the GI50 is 23.4 µM (inactive) with MDA-MB-435, 46.3 µM (inactive) in the experiment with NCI-H522, 31 µM (inactive) with LOX IMVI and 18.8 µM (inactive) in the experiment on HCT-116.
As for `CCOP(=O)(OCC)C1CC(n2cc(C)c(=O)[nH]c2=O)OC1CO` (stereo not drawn), the GI50 in the experiment with HCT-15 was more than 100 µM; with 786-0, > 100 µM (inactive); with SK-MEL-28 it was > 100 µM (inactive); in the experiment with U-251, > 100 µM (inactive); in the experiment with SW-620 it was > 100 µM (inactive); in the experiment on RPMI-8226, > 100 µM (inactive). Moreover, the GI50 in the experiment on HT-29, with KM12, in the experiment on HOP-62, in the experiment on A498, with MOLT-4 and in the experiment on A549 was > 100 µM (inactive) each time. For the same compound, the GI50 in the experiment on SK-MEL-2 is > 100 µM (inactive); with UACC-257 it was > 100 µM (inactive); in the experiment with IGROV-1 it was > 100 µM (inactive); in the experiment on NCI-H522 it was 83.8 µM (inactive); in the experiment on LOX IMVI, > 100 µM (inactive); with HCT-116, > 100 µM (inactive).

For the origin of these results see ChEMBL document CHEMBL1201862, “PubChem BioAssay data set” (2004).
